Results from patent publication US20240390464A1, “Treatment of Adults With Overweight or Obesity With or Without Weight-Related Comorbidities” (Carmot Therapeutics Inc., priority 2023, published 2024).
Entries after “also recorded” stand apart in the source; their conditions may differ. Marks after values point to notes of the source that are not given here. Numbered stars: 1 amine (or outer) side, 2 acyl side, 3 side chain; on linkers, the order of the positions; unused ones are H or OH. Square brackets hold non-standard residues; d marks the D form. Side chains are listed from the residue outwards. Peptide text beside a SMILES is read from it. * marks the point of attachment. Isobutyryl(2-(3-CN-5-F-Ph)) = CC(C)(C(=O)*)c1cc(F)cc(C#N)c1; C20 diacid = O=C(O)CCCCCCCCCCCCCCCCCCC(=O)*; γGlu = O=C(O)[C@H](CCC(=O)[*:2])N[*:1]; AEEA = NCCOCCOCC(=O)O; Aib = CC(C)(N)C(=O)O; βAla = NCCC(=O)O

Test: Phase 1 MAD Cohorts 6-8: safety and tolerability (TEAEs)
Assay type: in vivo, human
Conditions: for Abdominal Distention / Constipation / Constipation Grade 1 / Constipation Grade 2 / Constipation Grade 3 / Diarrhea / Diarrhea Grade 1 / Diarrhea Grade 2 / Diarrhea Grade 3 / Drug-related TEAEs / Dyspepsia / Eructation / Fatal TEAEs / GI TEAEs (Total) / Gastroesophageal Reflux Disease / Nausea / Nausea Grade 1 / Nausea Grade 3 / Serious TEAEs / Subjects discontinued due to TEAE / Subjects with at least 1 TEAE / TEAE Severity: Grade 1 / TEAE Severity: Grade 2 / TEAE Severity: Grade 3 / Vomiting / Vomiting Grade 1 / Vomiting Grade 2 / Vomiting Grade 3 / Nausea Grade 2: N = 6
From the text: The primary objective of this study is to determine the safety and tolerability of CT-388 in otherwise healthy overweight and obese adult participants when administered once weekly over 4 consecutive weeks with titrated dosing.
Safety and tolerability will be assessed by monitoring adverse events (AE) including local injection-site reactions, measuring vital signs and ECGs, and performing clinical laboratory blood and urine analyses.
• Cohort 6: One weekly dose titrated across 4 consecutive weeks with CT-388 doses of . . . • 5.0 mg at Day 1 • 5.0 mg at Day 8 • 5.0 mg at Day 15 • 7.5 mg at Day 22 • . . . or matched placebo administered subcutaneously in the abdomen • Cohort 7: One weekly dose titrated across 4 consecutive weeks with CT-388 doses of . . . • 5.0 mg at Day 1 • 5.0 mg at Day 8 • 8.0 mg at Day 15 • 12.0 mg at Day 22 • . . . or matched placebo administered subcutaneously in the abdomen • Cohort 8: One weekly dose titrated across 4 consecutive weeks with CT-388 doses of . . . • 5.0 mg at Day 1 • 8.0 mg at Day 8 • 12.0 mg at Day 15 • 12.0 mg at Day 22 • . . . or matched placebo administered subcutaneously in the abdomen (the third dose in Cohort 8 can be lowered to 8.0 mg based on tolerability data from Cohort 7) • Cohort 9: One weekly dose titrated across 4 consecutive weeks with CT-388 doses of . . . • 8.0 mg at Day 1 • 8.0 mg at Day 8 • 12.0 mg at Day 15 • 16.0 mg at Day 22 • . . . or matched placebo administered subcutaneously in the abdomen • Cohort 10: the following two dosing options are proposed in Table 3 below:
A Phase 1, randomized, placebo-controlled, double-blind study was conducted where single ascending doses (SAD; n=40; 0.5-7.5 mg) and multiple ascending doses (MAD; n=24; 5-12 mg via titration in 3 cohorts) were administered as described in Example 1 to overweight/obese adults.
The 24 patients in the MAD arm were divided into three cohorts (Cohorts 6, 7, and 8) as shown in Table 5 below (EOT: end of treatment).
Briefly, participants were randomized 3:1 (6 to CT-388, 2 to placebo, n=8 per cohort). CT-388 was administered once weekly at a dose of 5 mg at baseline in all cohorts and up-titrated up to 12 mg in Cohorts 7 & 8. Oral Glucose Tolerance Test (OGTT) with 75 g glucose solution was performed at baseline (Day −1) and on Day 23. Blood was collected at 15 min prior to OGTT, at OGTT start, and in 30-minute intervals until 120 minutes. Fasting glucose, insulin, C-peptide, and HOMA-IR were measured/calculated at baseline and on Day 23.

SMILES: CC[C@H](C)[C@H](NC(=O)[C@H](CC(C)C)NC(=O)[C@H](Cc1c[nH]c2ccccc12)NC(=O)[C@H](CCC(N)=O)NC(=O)[C@@H](NC(=O)[C@H](Cc1ccccc1)NC(=O)[C@H](C)NC(=O)[C@H](CCCCNC(=O)COCCOCCNC(=O)COCCOCCNC(=O)CC[C@H](NC(=O)CCCCCCCCCCCCCCCCCCC(=O)O)C(=O)O)NC(=O)[C@H](CCC(N)=O)NC(=O)[C@H](C)NC(=O)[C@@H](NC(=O)[C@H](CCCCN)NC(=O)[C@H](CC(=O)O)NC(=O)[C@H](CC(C)C)NC(=O)C(C)(C)NC(=O)[C@@H](NC(=O)[C@H](CO)NC(=O)[C@H](Cc1ccc(O)cc1)NC(=O)[C@H](CC(=O)O)NC(=O)[C@H](CO)NC(=O)[C@@H](NC(=O)[C@H](Cc1ccccc1)NC(=O)[C@@H](NC(=O)CNC(=O)[C@H](CCC(=O)O)NC(=O)CCNC(=O)C(C)(C)c1cc(F)cc(C#N)c1)[C@@H](C)O)[C@@H](C)O)[C@@H](C)CC)[C@@H](C)CC)C(C)C)C(=O)N[C@@H](C)C(=O)NCC(=O)NCC(=O)N1CCC[C@H]1C(=O)N[C@@H](CO)C(=O)N[C@@H](CO)C(=O)NCC(=O)N[C@@H](C)C(=O)N1CCC[C@H]1C(=O)N1CCC[C@H]1C(=O)N1CCC[C@H]1C(=O)N[C@@H](CO)C(N)=O [CT-388] ({Isobutyryl(2-(3-CN-5-F-Ph))-βAla}-EGTFTSDYSI[Aib]LDKIAQK([AEEA-AEEA-γGlu-C20 diacid])AFVQWLIAGGPSSGAPPPS-NH2)
- Abdominal Distention (Cohort 6, 5/5/5/7.5 mg SC QW): 3 n (%)
- Constipation (Cohort 6, 5/5/5/7.5 mg SC QW): 3 n (%)
- Constipation Grade 1 (Cohort 6, 5/5/5/7.5 mg SC QW): 3 n (%)
- Constipation Grade 2 (Cohort 6, 5/5/5/7.5 mg SC QW): 0 n (%)
- Constipation Grade 3 (Cohort 6, 5/5/5/7.5 mg SC QW): 0 n (%)
- Diarrhea (Cohort 6, 5/5/5/7.5 mg SC QW): 2 n (%)
- Diarrhea Grade 1 (Cohort 6, 5/5/5/7.5 mg SC QW): 2 n (%)
- Diarrhea Grade 2 (Cohort 6, 5/5/5/7.5 mg SC QW): 0 n (%)
- Diarrhea Grade 3 (Cohort 6, 5/5/5/7.5 mg SC QW): 0 n (%)
- Drug-related TEAEs (Cohort 6, 5/5/5/7.5 mg SC QW): 33 # Events
- Dyspepsia (Cohort 6, 5/5/5/7.5 mg SC QW): 1 n (%)
- Eructation (Cohort 6, 5/5/5/7.5 mg SC QW): 0 n (%)
- Fatal TEAEs (Cohort 6, 5/5/5/7.5 mg SC QW): 0 # Events
- GI TEAEs (Total) (Cohort 6, 5/5/5/7.5 mg SC QW): 6 n (%)
- Gastroesophageal Reflux Disease (Cohort 6, 5/5/5/7.5 mg SC QW): 0 n (%)
- Nausea (Cohort 6, 5/5/5/7.5 mg SC QW): 6 n (%)
- Nausea Grade 1 (Cohort 6, 5/5/5/7.5 mg SC QW): 4 n (%)
- Nausea Grade 3 (Cohort 6, 5/5/5/7.5 mg SC QW): 0 n (%)
- Serious TEAEs (Cohort 6, 5/5/5/7.5 mg SC QW): 0 # Events
- Subjects discontinued due to TEAE (Cohort 6, 5/5/5/7.5 mg SC QW): 0 n (%)
- Subjects with at least 1 TEAE (Cohort 6, 5/5/5/7.5 mg SC QW): 6 (100) n (%)
- TEAE Severity: Grade 1 (Cohort 6, 5/5/5/7.5 mg SC QW): 6 (100) n (%)
- TEAE Severity: Grade 2 (Cohort 6, 5/5/5/7.5 mg SC QW): 6 (100) n (%)
- TEAE Severity: Grade 3 (Cohort 6, 5/5/5/7.5 mg SC QW): 0 n (%)
- Vomiting (Cohort 6, 5/5/5/7.5 mg SC QW): 5 n (%)
- Vomiting Grade 1 (Cohort 6, 5/5/5/7.5 mg SC QW): 2 n (%)
- Vomiting Grade 2 (Cohort 6, 5/5/5/7.5 mg SC QW): 3 n (%)
- Vomiting Grade 3 (Cohort 6, 5/5/5/7.5 mg SC QW): 0 n (%)
- Nausea Grade 2 (Cohort 6, 5/5/5/7.5 mg SC QW, same subject experienced both mild and moderate events): 4 n (%)
- Abdominal Distention (Cohort 7, 5/5/8/12 mg SC QW): 0 n (%)
- Constipation (Cohort 7, 5/5/8/12 mg SC QW): 0 n (%)
- Constipation Grade 1 (Cohort 7, 5/5/8/12 mg SC QW): 0 n (%)
- Constipation Grade 2 (Cohort 7, 5/5/8/12 mg SC QW): 0 n (%)
- Constipation Grade 3 (Cohort 7, 5/5/8/12 mg SC QW): 0 n (%)
- Diarrhea (Cohort 7, 5/5/8/12 mg SC QW): 2 (33.3) n (%)
- Diarrhea Grade 1 (Cohort 7, 5/5/8/12 mg SC QW): 2 (33.3) n (%)
- Diarrhea Grade 2 (Cohort 7, 5/5/8/12 mg SC QW): 0 n (%)
- Diarrhea Grade 3 (Cohort 7, 5/5/8/12 mg SC QW): 0 n (%)
- Drug-related TEAEs (Cohort 7, 5/5/8/12 mg SC QW): 18 # Events
- Dyspepsia (Cohort 7, 5/5/8/12 mg SC QW): 0 n (%)
- Eructation (Cohort 7, 5/5/8/12 mg SC QW): 2 (33.3) n (%)
- Fatal TEAEs (Cohort 7, 5/5/8/12 mg SC QW): 0 # Events
- GI TEAEs (Total) (Cohort 7, 5/5/8/12 mg SC QW): 4 (66.7) n (%)
- Gastroesophageal Reflux Disease (Cohort 7, 5/5/8/12 mg SC QW): 0 n (%)
- Nausea (Cohort 7, 5/5/8/12 mg SC QW): 1 (16.7) n (%)
- Nausea Grade 1 (Cohort 7, 5/5/8/12 mg SC QW): 1 (16.7) n (%)
- Nausea Grade 2 (Cohort 7, 5/5/8/12 mg SC QW): 0 n (%)
- Nausea Grade 3 (Cohort 7, 5/5/8/12 mg SC QW): 0 n (%)
- Serious TEAEs (Cohort 7, 5/5/8/12 mg SC QW): 0 # Events
- Subjects discontinued due to TEAE (Cohort 7, 5/5/8/12 mg SC QW): 0 n (%)
- Subjects with at least 1 TEAE (Cohort 7, 5/5/8/12 mg SC QW): 6 n (%)
- TEAE Severity: Grade 1 (Cohort 7, 5/5/8/12 mg SC QW): 6 n (%)
- TEAE Severity: Grade 2 (Cohort 7, 5/5/8/12 mg SC QW): 1 n (%)
- TEAE Severity: Grade 3 (Cohort 7, 5/5/8/12 mg SC QW): 0 n (%)
- Vomiting (Cohort 7, 5/5/8/12 mg SC QW): 2 (33.3) n (%)
- Vomiting Grade 1 (Cohort 7, 5/5/8/12 mg SC QW): 2 (33.3) n (%)
- Vomiting Grade 2 (Cohort 7, 5/5/8/12 mg SC QW): 0 n (%)
- Vomiting Grade 3 (Cohort 7, 5/5/8/12 mg SC QW): 0 n (%)
- Abdominal Distention (Cohort 8, 5/8/12/12 mg SC QW): 0 n (%)
- Constipation (Cohort 8, 5/8/12/12 mg SC QW): 1 (16.7) n (%)
- Constipation Grade 1 (Cohort 8, 5/8/12/12 mg SC QW): 1 (16.7) n (%)
- Constipation Grade 2 (Cohort 8, 5/8/12/12 mg SC QW): 0 n (%)
- Constipation Grade 3 (Cohort 8, 5/8/12/12 mg SC QW): 0 n (%)
- Diarrhea (Cohort 8, 5/8/12/12 mg SC QW): 3 (50.0) n (%)
- Diarrhea Grade 1 (Cohort 8, 5/8/12/12 mg SC QW): 3 (50.0) n (%)
- Diarrhea Grade 2 (Cohort 8, 5/8/12/12 mg SC QW): 0 n (%)
- Diarrhea Grade 3 (Cohort 8, 5/8/12/12 mg SC QW): 0 n (%)
- Drug-related TEAEs (Cohort 8, 5/8/12/12 mg SC QW): 25 # Events
- Dyspepsia (Cohort 8, 5/8/12/12 mg SC QW): 0 n (%)
- Eructation (Cohort 8, 5/8/12/12 mg SC QW): 1 (16.7) n (%)
- Fatal TEAEs (Cohort 8, 5/8/12/12 mg SC QW): 0 # Events
- GI TEAEs (Total) (Cohort 8, 5/8/12/12 mg SC QW): 5 (83.3) n (%)
- Gastroesophageal Reflux Disease (Cohort 8, 5/8/12/12 mg SC QW): 2 (33.3) n (%)
- Nausea (Cohort 8, 5/8/12/12 mg SC QW): 3 (50.0) n (%)
- Nausea Grade 1 (Cohort 8, 5/8/12/12 mg SC QW): 2 (33.3) n (%)
- Nausea Grade 2 (Cohort 8, 5/8/12/12 mg SC QW): 1 (16.7) n (%)
- Nausea Grade 3 (Cohort 8, 5/8/12/12 mg SC QW): 0 n (%)
- Serious TEAEs (Cohort 8, 5/8/12/12 mg SC QW): 0 # Events
- Subjects discontinued due to TEAE (Cohort 8, 5/8/12/12 mg SC QW): 0 n (%)
- Subjects with at least 1 TEAE (Cohort 8, 5/8/12/12 mg SC QW): 6 n (%)
- TEAE Severity: Grade 1 (Cohort 8, 5/8/12/12 mg SC QW): 6 n (%)
- TEAE Severity: Grade 2 (Cohort 8, 5/8/12/12 mg SC QW): 3 n (%)
- TEAE Severity: Grade 3 (Cohort 8, 5/8/12/12 mg SC QW): 0 n (%)
- Vomiting (Cohort 8, 5/8/12/12 mg SC QW): 2 (33.3) n (%)
- Vomiting Grade 1 (Cohort 8, 5/8/12/12 mg SC QW): 2 (33.3) n (%)
- Vomiting Grade 2 (Cohort 8, 5/8/12/12 mg SC QW): 1 (16.7) n (%)
- Vomiting Grade 3 (Cohort 8, 5/8/12/12 mg SC QW): 0 n (%)
- tolerability (MAD cohorts, 5 mg up-titrated to 12 mg SC QW over 4 weeks): generally well tolerated; also recorded: generally well-tolerated; also recorded: favorable tolerability profile
